Key:
[1] = target: T1, GSNOR (Homo sapiens, UniProt P11766); assay: GSNOR assay (inhibition of GSNOR activity, NADH absorbance at 340 nm); type: biochemical; details: printed as 'about <'; 0.240 mM GSNO, 0.300 mM NADH, pH 7.4, 25° C.
T1 construct: made in house; host or cells: E. coli (arabinose-induced)
Description: GSNOR expression and purification is described in Biochemistry 2000, 39, 10720-10729.
GSNOR Fermentation: Pre-cultures were grown from stabs of a GSNOR glycerol stock in 2XYT media containing 100 ug/ml ampicillin after an overnight incubation at 37° C. Cells were then added to fresh 2XYT (4 L) containing ampicillin and grown to an OD (A600) of 0.6-0.9 at 37° C. before induction. GSNOR expression was induced with 0.1% arabinose in an overnight incubation at 20° C.
GSNOR Purification: E. coli cell paste was lysed by nitrogen cavitation and the clarified lysate purified by Ni affinity chromatography on an AKTA FPLC (Amersham Pharmacia). The column was eluted in 20 mM Tris pH 8.0/250 mM NaCl with a 0-500 mM imidazole gradient. Eluted GSNOR fractions containing the Smt-GSNOR fusion were digested overnight with Ulp-1 at 4° C. to remove the affinity tag then re-run on the Ni column under the same conditions. GSNOR was recovered in the flowthrough fraction and for crystallography is further purified by Q-Sepharose and Heparin flowthrough chromatography in 20 mM Tris pH 8.0, 1 mM DTT, 10 uM ZnSO4.
GSNOR Assay: GSNO and enzyme/NADH Solutions are made up fresh each day. The solutions are filtered and allowed to warm to room temperature. GSNO solution: 100 mM NaPO4 (pH 7.4), 0.480 mM GSNO. 396 μL of GSNO Solution is added to a cuvette followed by 8 μL of test compound in DMSO (or DMSO only for full reaction control) and mixed with the pipette tip. Compounds to be tested are made up at a stock concentration of 10 mM in 100% DMSO. 2 fold serial dilutions are done in 100% DMSO. 8 μL of each dilution are added to an assay so that the final concentration of DMSO in the assay is 1%. The concentrations of compounds tested range from 100 to 0.003 μM. Enzyme/NADH solution: 100 mM NaPO4 (pH 7.4), 0.600 mM NADH, 1.0 μg/mL GSNO Reductase. 396 μL of the Enzyme/NADH solution is added to the cuvette to start the reaction. The cuvette is placed in the Cary 3E UV/Visible Spectrophotometer and the change in 340 nm absorbance/min at 25° C. is recorded for 3 minutes. The assays are done in triplicate for each compound concentration. IC50's for each compound are calculated using the standard curve analysis in the Enzyme Kinetics Module of SigmaPlot.
Final assay conditions: 100 mM NaPO4, pH 7.4, 0.240 mM GSNO, 0.300 mM NADH, 0.5 μg/mL GSNO Reductase, and 1% DMSO. Final volume: 800 μL/cuvette.

[2] = system: cigarette smoke-induced COPD (subchronic 11 day); assay: Subchronic (11 day) cigarette smoke exposure COPD model; type: in vivo, female C57Bl/6 mice
Description: (§1) The efficacy of GSNOR inhibitors was assessed in a mouse model of chronic obstructive pulmonary disease (COPD) induced by short duration (4 days or 11 days) of exposure to cigarette smoke. Infiltration of inflammatory cells into the bronchoalveolar lavage fluid (BALF) and BALF levels of chemokines involved in inflammation and tissue turnover/repair were measured to assess the influences of GSNOR inhibitors on some of the early events associated with the initiation and progression of COPD.
(§2) Efficacy of GSNOR inhibitors against COPD was explored using acute (4 day) and subchronic (11 day) models of cigarette smoke-induced COPD in mice. […] In animal models, changes in lung pathology are only evident after extended (several months) duration of exposure to cigarette smoke, thus making chronic models prohibitive as effective screening tools. More recently, models exploring inflammatory responses after short duration (2 weeks or less) of smoke exposure in mice have been utilized as tools for screening efficacy and mechanisms of action of novel therapeutics against COPD. The key roles of inflammation in the initiation and progression of COPD, make these short duration models relevant for initial tests of efficacy of novel therapeutics.
Subchronic (11 Day) Smoke Exposure Model: Female C57Bl/6 mice (N=10 per group) were exposed to cigarette smoke generated from Marlboro 100 cigarettes without filters. Exposure times were 25 min. on study day 1, 35 min. on study day 2, and 45 min. on study days 3 to 11. GSNOR inhibitors were administered one hour prior to smoke exposure on each day. GSNOR inhibitors were dosed orally at 1 to 10 mg/kg/day for 11 days. The effects of GSNOR inhibitors were assessed by quantitating the number of total cells, and leukocytes differentials in the BALF via light microscopy at 24 h after the last exposure. The effect of GSNOR inhibitors were compared to vehicle treated controls and expressed as percent inhibition of the cigarette smoke induced increases in BALF cell numbers. Roflumilast was used as the positive control for the study and was dosed at 5 mg/kg/day. A group of naïve mice (N=10) was exposed to air and dosed with vehicle as a negative control for the study.

[3] = system: cigarette smoke-induced COPD (acute 4 day); assay: Acute (4 day) cigarette smoke exposure COPD model; type: in vivo, female C57Bl/6 mice
Description: as §1, §2
Acute (4 Day) Smoke Exposure Model: Female C57Bl/6 mice (N=8 per group) were exposed to cigarette smoke using a whole body exposure chamber. Mice were exposed daily for 4 consecutive days to 4 cycles of smoke from 6 sequential cigarettes (Kentucky 3R4F without filter) with a 30 minute smoke free interval between cycles. GSNOR inhibitors were administered daily via oral dosing at 10 mg/kg/day for 7 days starting 2 days prior to smoke exposure and continuing 1 day post-exposure. The effects of GSNOR inhibitors were assessed by quantitating the numbers of total cells, leukocytes, and leukocytes differentials in the BALF via light microscopy and the levels of BALF chemokines via ELISA at approximately 24 h after the last smoke exposure. The effect of GSNOR inhibitors were compared to vehicle treated controls. The PDE4 inhibitor, roflumilast, was used as the positive control for the study. A group of naïve mice (N=8) was exposed to air and used as a negative control for the study.

[4] = oral 10 mg/kg/day for 7 days, vs vehicle treated controls, p<0.05

T1 sequence (P11766 whole entry): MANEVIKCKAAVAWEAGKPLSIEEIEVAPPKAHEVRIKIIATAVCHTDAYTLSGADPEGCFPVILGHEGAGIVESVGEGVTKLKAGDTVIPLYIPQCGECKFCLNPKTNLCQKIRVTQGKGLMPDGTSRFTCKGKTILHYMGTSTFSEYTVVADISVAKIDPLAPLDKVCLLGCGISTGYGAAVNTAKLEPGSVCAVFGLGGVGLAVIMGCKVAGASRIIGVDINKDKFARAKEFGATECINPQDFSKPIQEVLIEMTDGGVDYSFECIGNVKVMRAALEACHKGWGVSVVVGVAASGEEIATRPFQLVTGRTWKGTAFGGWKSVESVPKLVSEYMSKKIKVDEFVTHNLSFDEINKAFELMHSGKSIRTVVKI

| SMILES | IC50 [1] [nM] | dose response of effect ([2]; 1, 5, or 10 mg/kg/day) | effects compared to roflumilast (positive control) ([2]; subchronic 11 day model, roflumilast 5 mg/kg/day) | BALF chemokines ([3]; acute 4 day smoke model) | effects compared to roflumilast (positive control) ([3]; acute 4 day smoke model) | decrease of eosinophils in BALF [3, 4] [%] | decrease of leukocytes in BALF [3, 4] [%] | decrease of macrophages in BALF [3, 4] [%] | decrease of neutrophils in BALF [3, 4] [%] | decrease of total cells in BALF [3, 4] [%] | inhibition of lymphocytes in BALF ([2]; oral 5 mg/kg/day) [%] | inhibition of macrophages in BALF ([2]; oral 5 mg/kg/day) [%] | inhibition of neutrophils in BALF ([2]; oral 5 mg/kg/day) [%] | inhibition of total cells in BALF ([2]; oral 5 mg/kg/day) [%] | inhibition of smoke-induced increase in eosinophils in BALF ([2]; oral 10 mg/kg/day for 11 days) [%] | inhibition of smoke-induced increase in lymphocytes in BALF ([2]; oral 10 mg/kg/day for 11 days) [%] | inhibition of smoke-induced increase in macrophages in BALF ([2]; oral 10 mg/kg/day for 11 days) [%] | inhibition of smoke-induced increase in neutrophils in BALF ([2]; oral 10 mg/kg/day for 11 days) [%] | inhibition of smoke-induced increase in total cells in BALF ([2]; oral 10 mg/kg/day for 11 days) [%] |
| --- | --- | --- | --- | --- | --- | --- | --- | --- | --- | --- | --- | --- | --- | --- | --- | --- | --- | --- | --- |
| O=C(O)c1ccc(-c2ccc3cc(O)ccc3n2)c(Cl)c1 [Example 8, 3-chloro-4-(6-hydroxyquinolin-2-yl)benzoic acid] | < 100 | no dose response of effect | comparable to those of roflumilast |  |  |  |  |  |  |  |  |  |  |  |  |  |  |  |  |
| O=C(O)c1ccc(-c2ccc3cc(O)ccc3n2)cc1 [Example 3, 4-(6-hydroxyquinolin-2-yl)benzoic acid] |  |  |  | restored BALF chemokines towards levels observed in naïve mice | comparable to or greater than those observed for roflumilast | 95 | 80 | 75 | 84 | 66 | 46 | 23 | 29 | 22 | 70 | 49 | 24 | 41 | 25 |

From patent US9221810B2, “Substituted bicyclic aromatic compounds as S-nitrosoglutathione reductase inhibitors” (Nivalis Therapeutics, Inc., priority 2010, dated 2015)
